In patent publication US20230141603A1, “BENZODIAZEPINE DERIVATIVES AS GABA A GAMMA1 PAM” (Hoffmann-La Roche Inc., priority 2021, published 2023):

molecular target: T1, h-GABAA α2β2γ1 (Homo sapiens, UniProt P47869+Q8N1C3); assay: Radioligand binding assay, [3H]RO7239181 competition, HEK293F membranes; parameters: signal peptide of human GABAA α5 subunit (Met1 to Ser31), replacing the α2 signal peptide (N); expressed in transfected cells; host or cells: HEK293F cells (ThermoFisher R79007), membranes
T1 sequence (P47869 29-451): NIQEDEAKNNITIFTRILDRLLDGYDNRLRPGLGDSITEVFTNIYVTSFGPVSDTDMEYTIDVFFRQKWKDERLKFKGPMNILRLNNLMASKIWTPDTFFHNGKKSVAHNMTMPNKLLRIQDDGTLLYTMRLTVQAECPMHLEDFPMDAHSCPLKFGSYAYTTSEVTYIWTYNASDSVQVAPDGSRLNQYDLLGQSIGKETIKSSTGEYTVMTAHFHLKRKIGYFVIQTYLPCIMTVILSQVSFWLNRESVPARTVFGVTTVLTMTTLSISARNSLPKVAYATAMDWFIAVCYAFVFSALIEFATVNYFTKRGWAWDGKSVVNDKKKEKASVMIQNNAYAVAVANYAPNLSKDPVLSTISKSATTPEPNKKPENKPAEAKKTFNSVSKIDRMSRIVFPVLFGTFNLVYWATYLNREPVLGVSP
T1 sequence (P47870 25-512 partner limits assumed): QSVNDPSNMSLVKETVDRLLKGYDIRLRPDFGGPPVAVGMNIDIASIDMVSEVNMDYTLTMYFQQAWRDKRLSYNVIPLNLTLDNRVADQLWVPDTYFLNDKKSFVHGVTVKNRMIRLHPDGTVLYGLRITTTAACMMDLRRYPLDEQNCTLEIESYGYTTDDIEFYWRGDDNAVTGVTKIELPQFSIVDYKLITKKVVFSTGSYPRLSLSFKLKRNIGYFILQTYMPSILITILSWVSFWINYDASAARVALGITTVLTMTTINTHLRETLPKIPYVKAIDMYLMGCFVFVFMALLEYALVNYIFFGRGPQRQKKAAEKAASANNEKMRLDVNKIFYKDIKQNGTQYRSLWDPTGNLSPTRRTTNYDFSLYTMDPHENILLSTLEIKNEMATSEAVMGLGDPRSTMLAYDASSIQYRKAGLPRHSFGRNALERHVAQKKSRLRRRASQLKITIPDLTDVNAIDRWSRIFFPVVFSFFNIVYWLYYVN
T1 sequence (Q8N1C3 36-465): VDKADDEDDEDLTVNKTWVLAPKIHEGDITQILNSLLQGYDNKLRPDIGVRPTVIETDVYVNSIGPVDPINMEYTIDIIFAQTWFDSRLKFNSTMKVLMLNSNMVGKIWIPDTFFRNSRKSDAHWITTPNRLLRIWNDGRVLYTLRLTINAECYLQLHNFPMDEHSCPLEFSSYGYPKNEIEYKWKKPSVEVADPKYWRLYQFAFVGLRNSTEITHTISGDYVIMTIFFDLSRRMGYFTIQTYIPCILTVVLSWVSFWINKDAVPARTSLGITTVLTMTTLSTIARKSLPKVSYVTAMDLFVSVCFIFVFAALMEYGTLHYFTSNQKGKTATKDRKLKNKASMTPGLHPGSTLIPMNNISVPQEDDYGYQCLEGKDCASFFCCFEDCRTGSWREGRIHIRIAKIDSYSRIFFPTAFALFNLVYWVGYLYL
Experimental: The affinity of compounds at GABAA γ1 subunit-containing receptors was measured by competition for [^3H]RO7239181 (67.3 Ci/mmol; Roche) binding to membranes from HEK293F cells (ThermoFisher R79007) expressing human (transiently transfected) receptors of composition […], α2β2γ1, α1β2γ1.
Harvested pellets from HEK293F cells expressing the different GABAA receptor subtypes were resuspended in Mannitol Buffer pH 7.2-7.4 (Mannitol 0.29M, Triethylamine 10 mM, Acetic acid 10 mM, EDTA 1 mM plus protease inhibitors (20 tablets Complete, Roche Diagnostics Cat. No. 05 056 489 001 per liter)), washed two times and then resuspended at 1:10 to 1:15 dilution in the same buffer. Cell disruption was performed by stirring the suspension in a Parr vessel #4637 at 435 psi for 15 minutes, and then the suspensions were centrifuged at 1000×g for 15 minutes at 4° C. (Beckman Avanti J-HC; rotor JS-4.2). The supernatant (S1) was transferred in a 21 Schott flask and the pellet (P1) was resuspended with Mannitol Buffer up to 175 ml. The resuspended pellet was transferred into a 250 ml Corning centrifugal beaker and centrifuged at 1500×g for 10 minutes at 4° C. (Beckman Avanti J-HC; rotor JS-4.2). The supernatant (S1) was then transferred in the 21 Schott flask and the pellet was discarded. The supernatants (S1) were centrifuged in 500 ml Beckman polypropylene centrifugal beaker at 15′000×g for 30 minutes at 4° C. (Beckman Avanti J-20 XP; rotor JLA-10.500). The pellet (P2) was resuspended with Mannitol Buffer 1:1 and frozen at −80° C. The supernatant (S2) was centrifuged in 100 ml Beckman polypropylene centrifugal tubes at 48000×g for 50 minutes at 4° C. (Beckman Avanti J-20 XP; rotor JA-18). The supernatant (S3) was discarded and the pellet (P3) was resuspended with 1:1 Mannitol Buffer. The P2 and P3 protein concentration was determined with the BIORAD Standard assay method with bovine serum albumin as standard and measured on the NANO-Drop 1000. The membrane suspension was aliquots (500 μl per tube) and stored at −80° C. until required. Membrane homogenates were resuspended and polytronised (Polytron PT1200E Kinematica AG) in Potassium Phosphate 10 mM, KCl 100 mM binding buffer at pH 7.4 to a final assay concentration determined with a previous experiment.
Assays were incubated to equilibrium for 1 hour at 4° C. and then, membranes were filtered onto unifilter (96-well white microplate with bonded GF/C filters preincubated 20-50 minutes in 0.3% Polyethylenimine) with a Filtermate 196 harvester (Packard BioScience) and washed 4 times with cold Potassium Phosphate 10 mM pH 7.4, KCl 100 mM binding buffer. After drying, filter-retained radioactivity was detected by liquid scintillation counting. Ki values were calculated using Excel-Fit (Microsoft) and are the means of two determinations.

Question: `Cl.NCc1nnc2n1-c1ccc(Br)c(Cl)c1C(c1c(F)cccc1F)=NC2` [Example 36, [8-bromo-7-chloro-6-(2,6-difluorophenyl)-4H-[1,2,4]triazolo[4,3-a][1,4]benzodiazepin-1-yl]methanamine hydrochloride] was tested. Which Ki did it give?
Answer: 8.5 nM

Question: How did the Ki turn out when `Clc1cccnc1C1=NCc2nnc(-c3ccncn3)n2-c2ccc(Br)c(Cl)c21` [Example 44, 8-bromo-7-chloro-6-(3-chloro-2-pyridyl)-1-pyrimidin-4-yl-4H-[1,2,4]triazolo[4,3-a][1,4]benzodiazepine] was run?
Answer: 9.6 nM

Question: `Cc1nnc2n1-c1ccc(Br)c(Cl)c1C(c1ncccc1F)=NC2` [Example 24, 8-bromo-7-chloro-6-(3-fluoro-2-pyridyl)-1-methyl-4H-[1,2,4]triazolo[4,3-a][1,4]benzodiazepine] was tested. Which Ki did it give?
Answer: 24.3 nM

Question: `Fc1cccc(F)c1C1=NCc2nncn2-c2ccc(C(F)(F)F)c(Cl)c21` [Example 37, 7-chloro-6-(2,6-difluorophenyl)-8-(trifluoromethyl)-4H-[1,2,4]triazolo[4,3-a][1,4]benzodiazepine] was tested. Which Ki did it give?
Answer: 41.4 nM

Question: For `O=c1[nH]nc2n1-c1ccc(Br)c(Cl)c1C(c1ccccc1F)=NC2` [Example 26, 8-bromo-7-chloro-6-(2-fluorophenyl)-2,4-dihydro-[1,2,4]triazolo[4,3-a][1,4]benzodiazepin-1-one], which Ki is on record?
Answer: 31.6 nM

Question: Which Ki does the source give for `Fc1cccc(F)c1C1=NCc2nnc(-c3ccncn3)n2-c2ccc(Br)c(Br)c21` [Example 43, 7,8-dibromo-6-(2,6-difluorophenyl)-1-pyrimidin-4-yl-4H-[1,2,4]triazolo[4,3-a][1,4]benzodiazepine] here?
Answer: 5.8 nM

Question: For `Cc1nnc2n1-c1ccc(C(F)(F)F)c(Cl)c1C(c1ncccc1F)=NC2` [Example 78, 7-chloro-6-(3-fluoro-2-pyridyl)-1-methyl-8-(trifluoromethyl)-4H-[1,2,4]triazolo[4,3-a][1,4]benzodiazepine], which Ki is on record?
Answer: 50.8 nM

Question: Which Ki does the source give for `Fc1cccc(F)c1C1=NCc2nnc(-c3cccnn3)n2-c2ccc(Br)c(Br)c21` [Example 42, 7,8-dibromo-6-(2,6-difluorophenyl)-1-pyridazin-3-yl-4H-[1,2,4]triazolo[4,3-a][1,4]benzodiazepine] here?
Answer: 5.5 nM

Question: Which Ki does the source give for `COc1ccc2c(c1Cl)C(c1c(F)cccc1F)=NCc1nnc(C3CC3)n1-2` [Example 79, 7-chloro-1-cyclopropyl-6-(2,6-difluorophenyl)-8-methoxy-4H-[1,2,4]triazolo[4,3-a][1,4]benzodiazepine] here?
Answer: 51.2 nM

Question: With `Fc1ccccc1C1=NCc2nncn2-c2ccc(Br)c(Cl)c21` [Example 8, 8-bromo-7-chloro-6-(2-fluorophenyl)-4H-[1,2,4]triazolo[4,3-a][1,4]benzodiazepine] as the molecule, how does the Ki read?
Answer: 47.6 nM

Question: For `Fc1cccc(F)c1C1=NCc2nnc(-c3ccncn3)n2-c2ccc(Cl)c(Cl)c21` [Example 12, 7,8-dichloro-6-(2,6-difluorophenyl)-1-pyrimidin-4-yl-4H-[1,2,4]triazolo[4,3-a][1,4]benzodiazepine], which Ki is on record?
Answer: 10.4 nM

Question: With `Fc1cccnc1C1=NCc2nnc(C3CC3)n2-c2ccc(Cl)c(Cl)c21` [Example 65, 7,8-dichloro-1-cyclopropyl-6-(3-fluoro-2-pyridyl)-4H-[1,2,4]triazolo[4,3-a][1,4]benzodiazepine] as the molecule, how does the Ki read?
Answer: 64.9 nM

Question: For `Fc1ccccc1C1=NCc2nnc(-c3cccnn3)n2-c2ccc(Br)c(Cl)c21` [Example 3, 8-bromo-7-chloro-6-(2-fluorophenyl)-1-pyridazin-3-yl-4H-[1,2,4]triazolo[4,3-a][1,4]benzodiazepine], which Ki is on record?
Answer: 8.8 nM

Question: How did the Ki turn out when `Cc1ncc2n1-c1ccc(Cl)cc1C(c1ccccc1F)=NC2` [Midazolam, reference compound] was run?
Answer: 738 nM

Question: With `Fc1cccc(F)c1C1=NCc2nnc(-c3cccnn3)n2-c2ccc(Cl)c(Cl)c21` [Example 14, 7,8-dichloro-6-(2,6-difluorophenyl)-1-pyridazin-3-yl-4H-[1,2,4]triazolo[4,3-a][1,4]benzodiazepine] as the molecule, how does the Ki read?
Answer: 3.4 nM

Question: With `Cc1nnc2n1-c1ccc(C(F)(F)F)c(Cl)c1C(c1c(F)cccc1F)=NC2` [Example 40, 7-chloro-6-(2,6-difluorophenyl)-1-methyl-8-(trifluoromethyl)-4H-[1,2,4]triazolo[4,3-a][1,4]benzodiazepine] as the molecule, how does the Ki read?
Answer: 26.8 nM

Question: `Cc1nnc2n1-c1ccc(I)c(Cl)c1C(c1c(F)cccc1F)=NC2` [Example 41, 7-chloro-6-(2,6-difluorophenyl)-8-iodo-1-methyl-4H-[1,2,4]triazolo[4,3-a][1,4]benzodiazepine] was tested. Which Ki did it give?
Answer: 5.5 nM

Question: For `Fc1ccccc1C1=NCc2nnc(-c3ccncn3)n2-c2ccc(Cl)c(Cl)c21` [Example 18, 7,8-dichloro-6-(2-fluorophenyl)-1-pyrimidin-4-yl-4H-[1,2,4]triazolo[4,3-a][1,4]benzodiazepine], which Ki is on record?
Answer: 21.6 nM

Question: How did the Ki turn out when `COCCc1nnc2n1-c1ccc(Cl)c(Cl)c1C(c1c(F)cccc1F)=NC2` [Example 19, 7,8-dichloro-6-(2,6-difluorophenyl)-1-(2-methoxyethyl)-4H-[1,2,4]triazolo[4,3-a][1,4]benzodiazepine] was run?
Answer: 26 nM

Question: For `Cc1ccc2c(c1Cl)C(c1c(F)cccc1F)=NCc1nnc(-c3ccncn3)n1-2` [Example 49, 7-chloro-6-(2,6-difluorophenyl)-8-methyl-1-pyrimidin-4-yl-4H-[1,2,4]triazolo[4,3-a][1,4]benzodiazepine], which Ki is on record?
Answer: 14.1 nM

Question: Which Ki does the source give for `Fc1cccc(F)c1C1=NCc2nnc(-c3cccnn3)n2-c2ccc(C(F)(F)F)c(Cl)c21` [Example 38, 7-chloro-6-(2,6-difluorophenyl)-1-pyridazin-3-yl-8-(trifluoromethyl)-4H-[1,2,4]triazolo[4,3-a][1,4]benzodiazepine] here?
Answer: 12.6 nM

Question: For `Fc1cccnc1C1=NCc2nncn2-c2ccc(Cl)c(Cl)c21` [Example 60, 7,8-dichloro-6-(3-fluoro-2-pyridyl)-4H-[1,2,4]triazolo[4,3-a][1,4]benzodiazepine], which Ki is on record?
Answer: 38.9 nM

Question: With `Fc1cccc(F)c1C1=NCc2nncn2-c2ccc(Br)c(Cl)c21` [Example 7, 8-bromo-7-chloro-6-(2,6-difluorophenyl)-4H-[1,2,4]triazolo[4,3-a][1,4]benzodiazepine] as the molecule, how does the Ki read?
Answer: 8.5 nM
